Measured values taken from patent US10919885B2, “Compounds and uses thereof” (Yumanity Therapeutics, Inc., priority 2018, dated 2021).

Each compound was assayed against human SCD1 (Homo sapiens (Human), UniProt O00767) (assay: Yeast growth assay, strain expressing human SCD1 as the sole desaturase (reduced growth as surrogate for SCD inhibition)). Conditions: yeast with OLE1 deleted expressing human SCD1 from a plasmid; growth read as OD600 after 40 h at 30° C.; top drug concentration 33.3 μM.
Format: cell-based
Procedure, shortened: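 Yeast lacking OLE1 depend on plasmid-borne human SCD1 or SCD5 and are tested in SD-Ura medium without oleic/palmitoleic acid or Tween.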

human SCD1, sequence (O00767 whole entry): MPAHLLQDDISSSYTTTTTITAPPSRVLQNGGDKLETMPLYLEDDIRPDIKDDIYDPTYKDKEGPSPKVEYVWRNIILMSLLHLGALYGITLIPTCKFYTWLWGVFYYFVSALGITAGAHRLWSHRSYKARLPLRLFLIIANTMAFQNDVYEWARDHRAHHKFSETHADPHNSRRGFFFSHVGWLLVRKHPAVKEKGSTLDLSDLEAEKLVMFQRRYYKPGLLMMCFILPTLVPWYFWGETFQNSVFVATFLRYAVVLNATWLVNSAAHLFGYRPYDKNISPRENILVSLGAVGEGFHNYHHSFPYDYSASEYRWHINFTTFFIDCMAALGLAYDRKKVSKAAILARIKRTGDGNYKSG

Question: `O=C(Nc1cnn(Cc2cccc(F)c2)c1)c1cc(-c2ncccc2F)on1` [Compound 108, N-(1-(3-fluorobenzyl)-1H-pyrazol-4-yl)-5-(3-fluoropyridin-2-yl)isoxazole-3-carboxamide] was tested. Which IC50 did it give?
Answer: 1.2 µM

Question: Which IC50 does the source give for `COc1ccc(Cn2cc(NC(=O)c3cc(-c4ccccc4)on3)cn2)cc1` [Compound 109] here?
Answer: > 45 µM

Question: `O=C(Nc1cnn(Cc2ccc(F)cc2)c1)c1cc(-c2ccccc2)on1` [Compound 112] was tested. Which IC50 did it give?
Answer: > 45 µM

Question: `CN(C)CC(c1ccccc1)n1cc(NC(=O)c2cc(-c3ccccc3)on2)cn1` (centres unmarked) [Compound 113] was tested. Which IC50 did it give?
Answer: > 45 µM

Question: How did the IC50 turn out when `CC1(c2cc(C(=O)Nc3cnn(Cc4cccc(F)c4)c3)no2)COC1` [Compound 116] was run?
Answer: > 45 µM

Question: `CC(C)(C)c1cc(C(=O)Nc2cnn(Cc3ccccc3)c2)no1` [Compound 118, N-(1-benzyl-1H-pyrazol-4-yl)-5-(tert-butyl)isoxazole-3-carboxamide] was tested. Which IC50 did it give?
Answer: 0.15 µM

Question: For `O=C(Nc1cnn(Cc2ccccc2)c1)c1cc(C2CC2)on1` [Compound 119, N-(1-benzyl-1H-pyrazol-4-yl)-5-cyclopropylisoxazole-3-carboxamide], which IC50 is on record?
Answer: 0.11 µM

Question: For `O=C(Nc1cnn(Cc2ccccc2)c1)c1cc(-c2ccccc2)no1` [Compound 123], which IC50 is on record?
Answer: > 45 µM

Question: For `O=C(Nc1cnn(Cc2ccccc2)c1)c1cc(-c2ccncc2)on1` [Compound 124, N-(1-benzyl-1H-pyrazol-4-yl)-5-(pyridin-4-yl)isoxazole-3-carboxamide], which IC50 is on record?
Answer: 5.7 µM

Question: With `O=C(Nc1cnn(Cc2ccccc2)c1)c1cc(-c2ccns2)on1` [Compound 126] as the compound, how does the IC50 read?
Answer: 6.97 µM

Question: For `N#Cc1cccc(-c2cc(C(=O)Nc3cnn(Cc4ccccc4)c3)no2)c1` [Compound 127], which IC50 is on record?
Answer: 4.62 µM

Question: Which IC50 does the source give for `N#Cc1ccc(-c2cc(C(=O)Nc3cnn(Cc4ccccc4)c3)no2)cc1` [Compound 128] here?
Answer: 0.98 µM

Question: For `O=C(Nc1cnn(Cc2ccccc2)c1)c1cc(-c2ccccn2)no1` [Compound 129], which IC50 is on record?
Answer: > 45 µM

Question: Which IC50 does the source give for `O=C(Nc1cnn(Cc2ccccc2)c1)c1cc(-c2ccccc2F)no1` [Compound 130] here?
Answer: > 45 µM

Question: With `O=C(Nc1cnn(Cc2ccccc2)c1)c1cc(-c2cncs2)no1` [Compound 131] as the compound, how does the IC50 read?
Answer: > 45 µM

Question: For `N#Cc1cccc(Cn2cc(NC(=O)c3cc(-c4ccccc4)on3)cn2)c1` [Compound 132], which IC50 is on record?
Answer: > 45 µM

Question: With `Cc1ncc(-c2cc(C(=O)Nc3cnn(Cc4ccccc4)c3)no2)s1` [Compound 133] as the compound, how does the IC50 read?
Answer: > 45 µM

Question: Which IC50 does the source give for `O=C(Nc1cnn(Cc2ccccc2)c1)c1cc(-c2ccncc2Cl)on1` [Compound 134, N-(1-benzyl-1H-pyrazol-4-yl)-5-(3-chloropyridin-4-yl)isoxazole-3-carboxamide] here?
Answer: 5.32 µM

Question: Which IC50 does the source give for `N#Cc1ccccc1-c1cc(C(=O)Nc2cnn(Cc3ccccc3)c2)no1` [Compound 135] here?
Answer: > 45 µM

Question: How did the IC50 turn out when `COc1ccccc1-c1cc(C(=O)Nc2cnn(Cc3ccccc3)c2)no1` [Compound 136] was run?
Answer: > 45 µM

Question: `O=C(Nc1cnn(Cc2ccccc2)c1)c1cc(-c2ccc(F)cn2)on1` [Compound 137] was tested. Which IC50 did it give?
Answer: > 45 µM

Question: With `O=C(c1cnn(Cc2ccncc2)c1)c1cc(-c2ccccc2)on1` [Compound 138] as the compound, how does the IC50 read?
Answer: > 45 µM

Question: With `O=C(Nc1cnn(Cc2cccc(F)c2)c1)c1cc(C2COC2)on1` [Compound 139, N-(1-(3-fluorobenzyl)-1H-pyrazol-4-yl)-5-(oxetan-3-yl)isoxazole-3-carboxamide] as the compound, how does the IC50 read?
Answer: 0.737 µM

Question: How did the IC50 turn out when `O=C(Nc1cnn(Cc2ccccc2)c1)c1cc(-c2ccccc2Cl)on1` [Compound 141] was run?
Answer: > 45 µM

Question: With `Cc1cnc(-c2cc(C(=O)Nc3cnn(Cc4ccccc4)c3)no2)s1` [Compound 142] as the compound, how does the IC50 read?
Answer: > 45 µM

Question: For `Cc1csc(-c2cc(C(=O)Nc3cnn(Cc4ccccc4)c3)no2)n1` [Compound 143], which IC50 is on record?
Answer: > 45 µM

Question: Which IC50 does the source give for `O=C(Nc1cnn(Cc2ccccc2)c1)c1cc(-c2cccc(F)c2)on1` [Compound 144] here?
Answer: > 45 µM

Question: Which IC50 does the source give for `COc1ccc(C2CCCN2C(=O)c2cc(-c3ccc4c(c3)OCO4)on2)nc1` (centres unmarked) [Compound 145] here?
Answer: > 45 µM

The compounds below were run against human SCD5 (Homo sapiens (Human), UniProt Q86SK9) (assay: Yeast growth assay, strain expressing human SCD5 as the sole desaturase (reduced growth as surrogate for SCD inhibition)). Conditions: yeast with OLE1 deleted expressing human SCD5 from a plasmid; growth read as OD600 after 40 h at 30° C.; top drug concentration 33.3 μM.
Format: cell-based
Experimental: Strains expressing SCD1 or SCD5 as the sole desaturase, the human SCD1 and SCD5 genes were used to evaluate inhibition of SCD1/SCD5 using reduced growth as a surrogate for SCD inhibition. These yeast strains express human SCD1 or SCD5 from a plasmid harbored in a strain in which the yeast OLE1 gene is deleted.
All compound profiling experiments were performed using the same basic protocol. Yeast were cultured using standard techniques in complete synthetic media lacking uracil and containing yeast nitrogen base supplemented with 2% (w/v) glucose (SD-Ura) Starter cultures were inoculated in 3 mL SD-Ura media containing 0.01% tween and 0.2 mM palmitoleic and oleic acid. Cultures were incubated overnight in a 30° C. shaker incubator (225 rpm). Saturated morning cultures were centrifuged, washed in SD-Ura media lacking TWEEN-20 and fatty acids, and then diluted 1:20 in fresh SD-Ura media also lacking TWEEN-20 and fatty acids.
Compound administration was performed in two separate steps. First, 15 μL of SD-Ura was dispensed into clear 384-well assay plates using a MULTIDROP™ Combi reagent dispenser. […] The cultures described above were centrifuged and washed with media lacking TWEEN-20 or oleic and palmitoleic acids.
After yeast delivery, assay plates were incubated under humidified conditions at 30° C. for 40 h. Yeast growth was monitored by reading the OD600 of each well using a microplate reader (Perkin Elmer EnVision™).

human SCD5, sequence (Q86SK9 whole entry): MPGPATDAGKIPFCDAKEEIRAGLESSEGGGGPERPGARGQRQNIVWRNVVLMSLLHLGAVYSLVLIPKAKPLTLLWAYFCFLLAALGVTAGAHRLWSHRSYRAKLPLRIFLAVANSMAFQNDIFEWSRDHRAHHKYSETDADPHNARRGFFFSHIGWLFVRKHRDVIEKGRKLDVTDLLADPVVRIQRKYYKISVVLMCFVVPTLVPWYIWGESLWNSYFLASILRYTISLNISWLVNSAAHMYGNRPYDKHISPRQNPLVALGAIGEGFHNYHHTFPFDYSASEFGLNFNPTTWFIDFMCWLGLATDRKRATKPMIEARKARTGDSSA

Question: `O=C(Nc1cnn(Cc2cccc(F)c2)c1)c1cc(-c2ncccc2F)on1` [Compound 108, N-(1-(3-fluorobenzyl)-1H-pyrazol-4-yl)-5-(3-fluoropyridin-2-yl)isoxazole-3-carboxamide] was tested. Which IC50 did it give?
Answer: 1.8 µM

Question: How did the IC50 turn out when `COc1ccc(Cn2cc(NC(=O)c3cc(-c4ccccc4)on3)cn2)cc1` [Compound 109] was run?
Answer: > 45 µM

Question: For `O=C(Nc1cnn(Cc2ccc(F)cc2)c1)c1cc(-c2ccccc2)on1` [Compound 112], which IC50 is on record?
Answer: > 45 µM

Question: With `CN(C)CC(c1ccccc1)n1cc(NC(=O)c2cc(-c3ccccc3)on2)cn1` (centres unmarked) [Compound 113] as the compound, how does the IC50 read?
Answer: > 45 µM

Question: How did the IC50 turn out when `CC1(c2cc(C(=O)Nc3cnn(Cc4cccc(F)c4)c3)no2)COC1` [Compound 116] was run?
Answer: > 45 µM

Question: With `CC(C)(C)c1cc(C(=O)Nc2cnn(Cc3ccccc3)c2)no1` [Compound 118, N-(1-benzyl-1H-pyrazol-4-yl)-5-(tert-butyl)isoxazole-3-carboxamide] as the compound, how does the IC50 read?
Answer: 2.7 µM

Question: `O=C(Nc1cnn(Cc2ccccc2)c1)c1cc(C2CC2)on1` [Compound 119, N-(1-benzyl-1H-pyrazol-4-yl)-5-cyclopropylisoxazole-3-carboxamide] was tested. Which IC50 did it give?
Answer: 2 µM

Question: Which IC50 does the source give for `O=C(Nc1cnn(Cc2ccccc2)c1)c1cc(-c2ccccc2)no1` [Compound 123] here?
Answer: > 45 µM

Question: How did the IC50 turn out when `O=C(Nc1cnn(Cc2ccccc2)c1)c1cc(-c2ccncc2)on1` [Compound 124, N-(1-benzyl-1H-pyrazol-4-yl)-5-(pyridin-4-yl)isoxazole-3-carboxamide] was run?
Answer: 7 µM

Question: For `O=C(Nc1cnn(Cc2ccccc2)c1)c1cc(-c2ccns2)on1` [Compound 126], which IC50 is on record?
Answer: > 45 µM

Question: For `N#Cc1cccc(-c2cc(C(=O)Nc3cnn(Cc4ccccc4)c3)no2)c1` [Compound 127], which IC50 is on record?
Answer: > 45 µM

Question: Which IC50 does the source give for `N#Cc1ccc(-c2cc(C(=O)Nc3cnn(Cc4ccccc4)c3)no2)cc1` [Compound 128] here?
Answer: > 45 µM

Question: With `O=C(Nc1cnn(Cc2ccccc2)c1)c1cc(-c2ccccn2)no1` [Compound 129] as the compound, how does the IC50 read?
Answer: > 45 µM

Question: For `O=C(Nc1cnn(Cc2ccccc2)c1)c1cc(-c2ccccc2F)no1` [Compound 130], which IC50 is on record?
Answer: > 45 µM

Question: With `O=C(Nc1cnn(Cc2ccccc2)c1)c1cc(-c2cncs2)no1` [Compound 131] as the compound, how does the IC50 read?
Answer: > 45 µM

Question: For `N#Cc1cccc(Cn2cc(NC(=O)c3cc(-c4ccccc4)on3)cn2)c1` [Compound 132], which IC50 is on record?
Answer: > 45 µM

Question: Which IC50 does the source give for `Cc1ncc(-c2cc(C(=O)Nc3cnn(Cc4ccccc4)c3)no2)s1` [Compound 133] here?
Answer: > 45 µM

Question: With `O=C(Nc1cnn(Cc2ccccc2)c1)c1cc(-c2ccncc2Cl)on1` [Compound 134, N-(1-benzyl-1H-pyrazol-4-yl)-5-(3-chloropyridin-4-yl)isoxazole-3-carboxamide] as the compound, how does the IC50 read?
Answer: 4.96 µM

Question: How did the IC50 turn out when `N#Cc1ccccc1-c1cc(C(=O)Nc2cnn(Cc3ccccc3)c2)no1` [Compound 135] was run?
Answer: > 45 µM

Question: How did the IC50 turn out when `COc1ccccc1-c1cc(C(=O)Nc2cnn(Cc3ccccc3)c2)no1` [Compound 136] was run?
Answer: > 45 µM

Question: For `O=C(Nc1cnn(Cc2ccccc2)c1)c1cc(-c2ccc(F)cn2)on1` [Compound 137], which IC50 is on record?
Answer: > 45 µM

Question: How did the IC50 turn out when `O=C(c1cnn(Cc2ccncc2)c1)c1cc(-c2ccccc2)on1` [Compound 138] was run?
Answer: > 45 µM

Question: With `O=C(Nc1cnn(Cc2cccc(F)c2)c1)c1cc(C2COC2)on1` [Compound 139, N-(1-(3-fluorobenzyl)-1H-pyrazol-4-yl)-5-(oxetan-3-yl)isoxazole-3-carboxamide] as the compound, how does the IC50 read?
Answer: 6.97 µM

Question: How did the IC50 turn out when `O=C(Nc1cnn(Cc2ccccc2)c1)c1cc(-c2ccccc2Cl)on1` [Compound 141] was run?
Answer: > 45 µM

Question: Which IC50 does the source give for `Cc1cnc(-c2cc(C(=O)Nc3cnn(Cc4ccccc4)c3)no2)s1` [Compound 142] here?
Answer: > 45 µM

Question: `Cc1csc(-c2cc(C(=O)Nc3cnn(Cc4ccccc4)c3)no2)n1` [Compound 143] was tested. Which IC50 did it give?
Answer: > 45 µM

Question: `O=C(Nc1cnn(Cc2ccccc2)c1)c1cc(-c2cccc(F)c2)on1` [Compound 144] was tested. Which IC50 did it give?
Answer: > 45 µM

Question: For `COc1ccc(C2CCCN2C(=O)c2cc(-c3ccc4c(c3)OCO4)on2)nc1` (centres unmarked) [Compound 145], which IC50 is on record?
Answer: > 45 µM
